pKi: −log10 of the molar value.
Experiments:
[1] = biological target: T1, Protein kinase C alpha type (Homo sapiens, UniProt P17252); test: Displacement of [3H]-PDBU from protein kinase C-alpha
[2] = biological target: T1, Protein kinase C alpha type; test: Displacement of [3H]PDBU from protein kinase C-alpha (Inactive)
[3] = biological target: T1, Protein kinase C alpha type; test: Displacement of [3H]PDBU from protein kinase C-alpha
Mus musculus = test: Tested in vivo for inflammatory potency in the mouse ear; assay type: functional

Structure (SMILES): CC1=CC23C(=O)[C@@H](C=C(CO)[C@@H](O)[C@]2(O)[C@H]1O)[C@H]1[C@@H](C[C@H]3C)C1(C)C
- pKi [1]: 6.62

Structure (SMILES): CC1=C[C@@]23CCCC[C@@H](C=C(CO)[C@@H](O)[C@]2(O)[C@H]1O)C3=O
- Ki [2]: Not Active

Structure (SMILES): CC1=CC23C(=O)[C@@H](C=C(CO)[C@@H](O)[C@]2(O)[C@H]1OC(=O)c1ccccc1)[C@H]1[C@@H](C[C@H]3C)C1(C)C
- pKi [3]: 9.85

Structure (SMILES): CCCCC(=O)O[C@@H]1[C@@H](C)[C@@]2(O)[C@@H](C=C(CO)C[C@]3(O)C(=O)C(C)=C[C@@H]23)[C@@H]2C(C)(C)[C@]12OC(=O)CCCC
- pKi [1]: 9.27
- Potency (Mus musculus): 0.067 nM

Structure (SMILES): O=C(O[C@H]1CCC23CCCC[C@H](C=C(CO)C[C@H]12)C3=O)c1ccccc1
- pKi [3]: 6.78

Structure (SMILES): CC1=CC23C(=O)[C@@H](C=C(COC(=O)c4ccccc4)[C@@H](O)[C@]2(O)[C@H]1OC(=O)c1ccccc1)[C@H]1[C@@H](C[C@H]3C)C1(C)C
- Potency (Mus musculus): 0.054 nM

Source: ChEMBL document CHEMBL1127207, “Synthesis of ingenol analogs wth affinity for protein kinase C” (Bioorg Med Chem Lett, 1993)
